Measured values reported in patent US11439147B2, “3-pyridyl oxyaniline compound and use of same” (Sumitomo Chemical Company, Limited, priority 2016, dated 2022).

Tests used:
Assay type in all cases: in vivo
Amaranthus retroflexus = assay: Post-emergence treatment test in a farmland (pot, foliar spray); settings: application rate 4 kg/ha; two-leaf stage, sprayed; nine days after spraying; visual, 11 stages 0 (no effect) to 10 (complete kill)
Protocol: Test Example 1: Post-emergence treatment test in a farmland
Nursery soil was put in a plastic pot measuring 8 cm in diameter and 6.5 cm in height, and in the pot, seeds of Amaranthus retroflexus were sown, and then covered with soil of about 0.5 cm thickness, and the plants were grown in a greenhouse. When the Amaranthus retroflexus plants were grown to two-leaf stage, a diluted solution containing any one of the present compound, the compound A, or the compound B was uniformly sprayed on the whole Amaranthus retroflexus plants so that the application rates of the chemicals would be values indicated in Table 1.
Here the diluted solution was prepared by dissolving the present compound, the compound A, or the compound B in dimethylformamide solution containing 2% of Tween 20 (polyoxyethylene sorbitan fatty acid ester) (manufactured by MP Biomedicals Inc.) and then diluting the solution with deionized water.
The Amaranthus retroflexus plants that were sprayed with the diluted solution containing the present compound, the compound A, or the compound B were grown in a greenhouse. Nine clays after spraying, the efficacy for controlling Amaranthus retroflexus plants was observed, thereby examining a herbicidal effect. Here the herbicidal effect was visually observed and evaluated by classifying the effect into 11 stages from 0 (no effect) to 10 (complete kill).

Echinochloa oryzicola [1] = assay: Herbicidal effect, pot test in greenhouse (paddy water treatment); settings: twelve days after treatment, visual index 0 (no effect) to 100 (complete kill)
Description: (§1) Herbicidal effect against Echinochloa oryzicola and Lindernia procumbens (Pot test in greenhouse) Soil was put in a plastic pot (φ 5 cm×5.5 cm), and soil was puddled, and the plastic pot was allowed to stand for 2 days, Lindernia procumbens seeds were mixed with soil, and sown to the surface of puddled soil in the pot. On the same day, the sprouted seeds of Echinochloa oryzicola were sown into about 0.5 cm depth from the soil surface of the pot, and the submerged depth was adjusted to about 2 cm. Treatment solutions containing the present, compound, the compound A, or the compound B were prepared by dissolving the present compound, the compound A, or the compound B in acetone, followed by diluting the resulting solutions with distilled water. On the same day as the sowing of Echinochloa oryzicola and Lindernia procumbens, the treatment solution containing the present compound, the compound A, or the compound B was poured into paddy water in the pot so that the application rates of the chemicals would be values indicated in Table 2. Twelve days after the treatment, the herbicidal effect on weeds was visually observed by classifying the effect into 0 to 100 indices (0 (no effect) to 100 (complete kill)).

Lindernia procumbens = assay: as above; settings: twelve days after treatment, visual index 0 (no effect) to 100 (complete kill)
Description: as §1

Echinochloa oryzicola [2] = assay: Hydroponic test of Echinochloa oryzicola; settings: ten days, visual index 0 (no effect) to 100 (complete kill)
Protocol: Test Example 3: Hydroponic Test of Echinochloa oryzicola
Two (2) mL of distilled water was poured into a plastic tube (2.5 cm in inside diameter×10 cm in height). To the distilled water was added a solution in which the present compound or the compound A was dissolved in dimethyl sulfoxide to prepare the treatment solutions so that, the treatment concentration thereof would be values indicated in table 3. Next, four grains of sprouted Echinochloa oryzicola seeds were put in each treatment solution. The tubes were covered with parafilm, and the seeds were grown under the condition that a cultivation at 25° C. under lightning for 16 hours and a successive cultivation at 25° C. under dark for 8 hours were repeated. Ten days after the addition of the Echinochloa oryzicola seeds, the herbicidal effect on Echinochloa oryzicola was visually observed by classifying the effect into 0 to 100 indices (0 (no effect) to 100 (complete kill)).

Arabidopsis thaliana = assay: Inhibitory activity on emergence of Arabidopsis thaliana; settings: ten days after sowing, visual index 0: no effect to 100: no emergence
Protocol: Test Example 4: Inhibitory Activity on Emergence of Arabiclopsis thaliana Each well of 24 well microtiter plates was matted with a filter paper, and to the filter paper was added 150 μL of distilled water. To the distilled water was added a solution in which the present compound, the compound A, or the compound B was dissolved in dimethyl sulfoxide so that the concentration of each of the chemicals would be values indicated in Table 4. Next, seeds of Arabidopsis thaliana were sown into each well and grown under the condition that a cultivation at 25° C. under lighting for 16 hours and a successive cultivation at 25° C. under dark for 8 hours were repeated. Ten days after sowing, the inhibitory activity on emergence of Arabidopsis thaliana was visually evaluated by classifying the activity into 0 to 100 indices (0: no effect to 100: no emergence).

[3] = application rate 50 g/a into paddy water
[4] = application rate 100 g/a into paddy water
[5] = treatment concentration 125 ppm
[6] = treatment concentration 250 ppm
[7] = treatment concentration 500 ppm
[8] = treatment concentration 1000 ppm

| SMILES | Herbicidal Effect (Amaranthus retroflexus) | Herbicidal Effect Echinochloa oryzicola (Echinochloa oryzicola [1]; [3]) | Herbicidal Effect Echinochloa oryzicola (Echinochloa oryzicola [1]; [4]) | Herbicidal Effect Lindernia procumbens (Lindernia procumbens; [3]) | Herbicidal Effect Lindernia procumbens (Lindernia procumbens; [4]) | Herbicidal Effect (Echinochloa oryzicola [2]; [5]) | Herbicidal Effect (Echinochloa oryzicola [2]; [6]) | Herbicidal Effect (Echinochloa oryzicola [2]; [7]) | Inhibitory Activity on Emergence (Arabidopsis thaliana; [7]) | Inhibitory Activity on Emergence (Arabidopsis thaliana; [8]) |
| --- | --- | --- | --- | --- | --- | --- | --- | --- | --- | --- |
| CCOC(=O)COc1ncccc1Oc1cc(N)c(F)cc1Cl [Compound A, 4-chloro-2-fluoro-5-{2-(ethoxycarbonyl)methoxy-3-pyridyloxy}aniline] | 1 | 0 | 10 | 0 | 0 | 0 | 0 | 0 | 0 | 0 |
| CCOC(=O)COc1ncccc1Oc1cc(NC(=O)CC(=O)C(F)(F)F)c(F)cc1Cl [Compound B] | 3 | 0 | 0 | 0 | 0 | – | – | – | 0 | 0 |
| CCOC(=O)COc1ncccc1Oc1cc(NC(=O)C=C(Nc2cc(Oc3cccnc3OCC(=O)OCC)c(Cl)cc2F)C(F)(F)F)c(F)cc1Cl [Present compound] | 8 | 100 | 100 | 50 | 60 | 100 | 100 | 100 | 100 | 100 |
